Counter-ions that a name gives are not always drawn.
Experiments:
Format in all cases: biochemical
Settings in all cases: Caliper assay at 1 mM ATP
JAK1 = JAK1 (Homo sapiens (Human), UniProt P23458); assay: JAK Caliper Enzyme Assay at 1 mM ATP (JAK1)
JAK2 = JAK2 (Homo sapiens (Human), UniProt O60674); assay: JAK Caliper Enzyme Assay at 1 mM ATP (JAK2)
JAK3 = JAK3 (Homo sapiens (Human), UniProt P52333); assay: JAK Caliper Enzyme Assay at 1 mM ATP (JAK3)
TYK2 = TYK2 (Homo sapiens (Human), UniProt P29597); assay: JAK Caliper Enzyme Assay at 1 mM ATP (TYK2)
TYK2, sequence (P29597 whole entry, species assumed): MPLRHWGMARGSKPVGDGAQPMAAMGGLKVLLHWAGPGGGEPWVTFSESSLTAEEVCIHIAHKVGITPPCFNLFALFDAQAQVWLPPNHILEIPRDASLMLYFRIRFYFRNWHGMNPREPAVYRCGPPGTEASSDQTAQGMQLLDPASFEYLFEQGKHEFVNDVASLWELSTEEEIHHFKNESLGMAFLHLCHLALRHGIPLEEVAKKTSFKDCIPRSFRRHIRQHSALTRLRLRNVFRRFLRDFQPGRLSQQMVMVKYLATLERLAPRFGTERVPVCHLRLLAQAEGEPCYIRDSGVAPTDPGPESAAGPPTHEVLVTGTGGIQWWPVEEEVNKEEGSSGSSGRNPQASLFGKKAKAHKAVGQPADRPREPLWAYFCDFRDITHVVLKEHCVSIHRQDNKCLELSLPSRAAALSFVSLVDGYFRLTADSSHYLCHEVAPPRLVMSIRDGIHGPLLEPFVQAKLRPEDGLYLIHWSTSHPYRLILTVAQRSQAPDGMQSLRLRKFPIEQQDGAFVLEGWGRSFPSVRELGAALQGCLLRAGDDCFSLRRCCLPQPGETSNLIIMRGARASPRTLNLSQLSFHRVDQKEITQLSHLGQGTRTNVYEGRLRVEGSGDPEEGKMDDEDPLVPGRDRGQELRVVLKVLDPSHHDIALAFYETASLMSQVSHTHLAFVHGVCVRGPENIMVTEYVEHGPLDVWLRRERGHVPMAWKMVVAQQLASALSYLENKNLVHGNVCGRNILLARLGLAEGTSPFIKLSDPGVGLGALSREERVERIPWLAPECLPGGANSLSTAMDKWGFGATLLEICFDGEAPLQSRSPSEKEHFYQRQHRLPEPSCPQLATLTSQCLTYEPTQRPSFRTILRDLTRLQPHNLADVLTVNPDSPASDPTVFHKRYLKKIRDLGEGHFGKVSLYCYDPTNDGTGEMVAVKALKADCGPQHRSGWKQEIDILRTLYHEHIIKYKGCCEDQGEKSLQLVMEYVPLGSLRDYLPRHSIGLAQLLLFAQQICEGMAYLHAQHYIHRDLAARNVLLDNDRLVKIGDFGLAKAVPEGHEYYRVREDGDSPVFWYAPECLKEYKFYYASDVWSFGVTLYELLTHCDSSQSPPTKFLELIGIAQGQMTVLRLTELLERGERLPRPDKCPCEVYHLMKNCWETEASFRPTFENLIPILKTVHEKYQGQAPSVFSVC

JAK3, sequence (P52333 whole entry, species assumed): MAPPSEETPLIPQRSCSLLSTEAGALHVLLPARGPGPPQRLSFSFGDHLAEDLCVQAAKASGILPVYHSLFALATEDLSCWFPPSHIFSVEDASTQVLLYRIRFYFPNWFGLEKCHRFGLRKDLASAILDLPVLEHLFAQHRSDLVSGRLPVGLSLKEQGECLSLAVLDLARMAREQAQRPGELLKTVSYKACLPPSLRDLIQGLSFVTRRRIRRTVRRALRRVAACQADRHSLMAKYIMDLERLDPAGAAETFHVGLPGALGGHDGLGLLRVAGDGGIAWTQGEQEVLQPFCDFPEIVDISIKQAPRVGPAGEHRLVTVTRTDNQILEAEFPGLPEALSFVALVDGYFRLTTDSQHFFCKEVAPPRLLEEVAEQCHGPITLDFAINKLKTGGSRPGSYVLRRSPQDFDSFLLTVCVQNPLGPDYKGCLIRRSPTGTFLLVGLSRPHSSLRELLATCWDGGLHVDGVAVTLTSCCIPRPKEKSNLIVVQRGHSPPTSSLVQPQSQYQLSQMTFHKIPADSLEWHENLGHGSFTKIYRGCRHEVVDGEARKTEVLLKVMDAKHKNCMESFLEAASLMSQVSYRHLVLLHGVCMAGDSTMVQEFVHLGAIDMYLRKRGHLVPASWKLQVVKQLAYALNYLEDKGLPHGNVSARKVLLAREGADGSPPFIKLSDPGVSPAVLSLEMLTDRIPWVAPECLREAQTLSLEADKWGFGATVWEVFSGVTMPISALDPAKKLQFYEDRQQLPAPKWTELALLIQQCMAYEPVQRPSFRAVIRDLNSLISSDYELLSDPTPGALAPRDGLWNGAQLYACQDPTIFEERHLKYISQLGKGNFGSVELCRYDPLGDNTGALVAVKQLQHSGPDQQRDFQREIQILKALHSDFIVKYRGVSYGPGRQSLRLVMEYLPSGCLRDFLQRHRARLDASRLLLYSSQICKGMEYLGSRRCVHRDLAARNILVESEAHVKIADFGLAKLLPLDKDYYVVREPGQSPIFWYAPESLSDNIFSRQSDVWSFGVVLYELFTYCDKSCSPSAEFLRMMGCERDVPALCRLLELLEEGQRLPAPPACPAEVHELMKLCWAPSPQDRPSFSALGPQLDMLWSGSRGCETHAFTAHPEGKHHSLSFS
JAK1, sequence (P23458 whole entry, species assumed): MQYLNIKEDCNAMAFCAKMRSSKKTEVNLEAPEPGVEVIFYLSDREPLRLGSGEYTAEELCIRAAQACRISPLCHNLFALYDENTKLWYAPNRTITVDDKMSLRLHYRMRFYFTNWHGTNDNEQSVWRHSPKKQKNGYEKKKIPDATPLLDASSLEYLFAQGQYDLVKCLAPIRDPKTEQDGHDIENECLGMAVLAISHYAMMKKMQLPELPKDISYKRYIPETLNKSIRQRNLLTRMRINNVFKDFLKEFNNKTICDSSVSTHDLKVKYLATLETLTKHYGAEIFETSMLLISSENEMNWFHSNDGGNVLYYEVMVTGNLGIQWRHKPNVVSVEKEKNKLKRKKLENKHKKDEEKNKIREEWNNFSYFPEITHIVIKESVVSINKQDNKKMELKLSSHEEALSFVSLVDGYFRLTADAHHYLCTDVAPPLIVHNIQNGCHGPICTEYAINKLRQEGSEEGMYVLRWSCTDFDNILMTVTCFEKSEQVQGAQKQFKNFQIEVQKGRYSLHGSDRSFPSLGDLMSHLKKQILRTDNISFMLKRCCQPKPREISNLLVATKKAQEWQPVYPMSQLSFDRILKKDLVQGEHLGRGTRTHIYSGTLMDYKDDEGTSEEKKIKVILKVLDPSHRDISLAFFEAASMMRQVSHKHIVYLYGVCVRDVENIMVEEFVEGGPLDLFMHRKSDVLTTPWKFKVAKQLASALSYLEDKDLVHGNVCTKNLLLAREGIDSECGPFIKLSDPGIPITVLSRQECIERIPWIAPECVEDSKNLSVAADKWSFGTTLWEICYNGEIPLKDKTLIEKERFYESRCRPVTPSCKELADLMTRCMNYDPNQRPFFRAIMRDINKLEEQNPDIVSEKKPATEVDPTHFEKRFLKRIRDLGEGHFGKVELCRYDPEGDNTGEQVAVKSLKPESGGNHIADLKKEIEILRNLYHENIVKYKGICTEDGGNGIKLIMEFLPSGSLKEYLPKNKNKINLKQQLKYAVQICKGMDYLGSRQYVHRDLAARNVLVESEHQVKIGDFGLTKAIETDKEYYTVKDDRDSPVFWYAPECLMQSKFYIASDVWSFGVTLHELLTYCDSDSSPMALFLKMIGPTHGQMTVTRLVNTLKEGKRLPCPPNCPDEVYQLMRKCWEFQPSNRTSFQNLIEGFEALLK
JAK2, sequence (O60674 whole entry, species assumed): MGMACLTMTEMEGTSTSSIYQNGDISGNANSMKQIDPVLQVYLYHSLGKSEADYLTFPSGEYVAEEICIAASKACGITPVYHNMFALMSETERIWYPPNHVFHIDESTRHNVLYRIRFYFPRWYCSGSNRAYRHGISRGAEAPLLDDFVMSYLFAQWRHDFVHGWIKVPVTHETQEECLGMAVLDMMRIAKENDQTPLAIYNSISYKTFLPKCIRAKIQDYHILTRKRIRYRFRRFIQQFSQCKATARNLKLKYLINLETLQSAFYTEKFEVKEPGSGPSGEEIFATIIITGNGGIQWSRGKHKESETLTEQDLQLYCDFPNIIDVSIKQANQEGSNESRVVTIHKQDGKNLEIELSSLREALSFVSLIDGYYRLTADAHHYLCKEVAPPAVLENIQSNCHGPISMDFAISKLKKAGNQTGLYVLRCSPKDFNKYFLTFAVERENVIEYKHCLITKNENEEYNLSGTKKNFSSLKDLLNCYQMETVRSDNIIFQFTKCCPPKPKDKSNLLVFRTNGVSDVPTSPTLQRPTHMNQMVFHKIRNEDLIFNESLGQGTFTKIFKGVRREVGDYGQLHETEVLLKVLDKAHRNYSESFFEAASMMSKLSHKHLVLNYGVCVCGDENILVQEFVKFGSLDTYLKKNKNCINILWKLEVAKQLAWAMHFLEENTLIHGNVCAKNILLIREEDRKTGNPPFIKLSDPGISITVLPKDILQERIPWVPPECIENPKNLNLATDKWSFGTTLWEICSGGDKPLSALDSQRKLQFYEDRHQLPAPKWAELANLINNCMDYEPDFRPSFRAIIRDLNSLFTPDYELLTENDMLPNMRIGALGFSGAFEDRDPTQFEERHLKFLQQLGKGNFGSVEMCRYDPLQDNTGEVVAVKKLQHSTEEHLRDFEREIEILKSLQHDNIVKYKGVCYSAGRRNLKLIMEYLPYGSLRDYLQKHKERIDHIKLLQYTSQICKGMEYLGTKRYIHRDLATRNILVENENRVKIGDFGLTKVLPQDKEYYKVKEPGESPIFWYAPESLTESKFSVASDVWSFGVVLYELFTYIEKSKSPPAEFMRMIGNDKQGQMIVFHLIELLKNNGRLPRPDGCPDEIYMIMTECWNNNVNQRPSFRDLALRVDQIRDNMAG

| Structure (SMILES) | IC50 (JAK1) | IC50 (JAK2) | IC50 (JAK3) | IC50 (TYK2) |
| --- | --- | --- | --- | --- |
| CCc1cc(O)c(F)cc1-c1nc(NCc2ccccc2N(C)S(C)(=O)=O)c2c(C(=O)NC)n[nH]c2n1 [Example 93, 6-(2-Ethyl-5-fluoro-4-hydroxyphenyl)-N-methyl-4-((2-(N-methylmethylsulfonamido)benzyl)amino)-1H-pyrazolo[3,4-d]pyrimidine-3-carboxamide] | 2 nM | 8.4 nM | 27.4 nM | 13.9 nM |
| CCc1cc(O)c(F)cc1-c1nc(NCc2ccccc2N(C)S(=O)(=O)c2ccccc2)c2c(C(N)=O)n[nH]c2n1 [Example 95, 6-(2-Ethyl-5-fluoro-4-hydroxyphenyl)-4-((2-(N-methylphenylsulfonamido)benzyl)amino)-1H-pyrazolo[3,4-d]pyrimidine-3-carboxamide] | 6.7 nM | 27 nM | 82.4 nM | 89.3 nM |
| CCN(c1ccccc1CNc1nc(-c2cc(F)c(O)cc2CC(F)(F)F)nc2[nH]nc(C(=O)NC)c12)S(C)(=O)=O [Example 103, 4-((2-(N-ethylmethylsulfonamido)-benzyl)amino)-6-(5-fluoro-4-hydroxy-2-(2,2,2-trifluoroethyl)phenyl)-N-methyl-1H-pyrazolo[3,4-d]pyrimidine-3-carboxamide] | 5 nM | 31 nM | 92.6 nM | 349 nM |
| CNC(=O)c1n[nH]c2nc(-c3cc(F)c(O)cc3CC(F)(F)F)nc(NCc3ccccc3N(C)S(N)(=O)=O)c12 [Example 109, 6-(5-Fluoro-4-hydroxy-2-(2,2,2-trifluoroethyl)phenyl)-N-methyl-4-((2-(methyl(sulfamoyl)amino)benzyl)amino)-1H-pyrazolo[3,4-d]pyrimidine-3-carboxamide] | 6.4 nM | 31.2 nM | 107 nM | 674 nM |
| CNC(=O)c1n[nH]c2nc(-c3cc(F)c(O)cc3CC(F)(F)F)nc(NCc3ccccc3N(C)S(=O)(=O)NC)c12 [Example 110, 6-(5-Fluoro-4-hydroxy-2-(2,2,2-trifluoroethyl)phenyl)-N-methyl-4-((2-(methyl(N-methylsulfamoyl)amino)benzyl)amino)-1H-pyrazolo[3,4-d]pyrimidine-3-carboxamide] | 5.4 nM | 26.9 nM | 120 nM | 35 nM |
| CCc1cc(O)ccc1-c1cc2[nH]ncc2c(N2CC(C)(O)C2)n1 [Example 115, 1-[6-(2-ethyl-4-hydroxyphenyl)-1H-pyrazolo[4,3-c]pyridin-4-yl]-3-methylazetidin-3-ol formate] | 4.3 nM | 10.1 nM | 16.8 nM | 229 nM |
| CCc1cc(O)ccc1-c1cc2[nH]ncc2c(N2CCc3ccc(S(=O)(=O)NCCN4CCCC4)cc3C2)n1 [Example 116, 2-[6-(2-ethyl-4-hydroxyphenyl)-1H-pyrazolo[4,3-c]pyridin-4-yl]-N-[2-(pyrrolidin-1-yl)ethyl]-1,2,3,4-tetrahydroisoquinoline-7-sulfonamide formate] | 3.8 nM | 10.1 nM | 23.3 nM | 163 nM |
| CCc1cc(O)ccc1-c1cc2[nH]ncc2c(N2CCc3c(cccc3NS(C)(=O)=O)C2)n1 [Example 123, N-{2-[6-(2-ethyl-4-hydroxyphenyl)-1H-pyrazolo[4,3-c]pyridin-4-yl]-1,2,3,4-tetrahydroisoquinolin-5-yl}methanesulfonamide formate] | 3.3 nM | 4.5 nM | 9.5 nM | 82.1 nM |
| CCc1cc(O)c(F)cc1-c1cc2[nH]ncc2c(NCc2ccccc2N(C)S(C)(=O)=O)n1 [Example 131, N-[2-({[6-(2-Ethyl-5-fluoro-4-hydroxyphenyl)-1H-pyrazolo[4,3-c]pyridin-4-yl]amino}methyl)phenyl]-N-methylmethanesulfonamide] | < 0.5 nM | 2.1 nM | 10.2 nM | 4.7 nM |
| CCc1cc(O)c(F)cc1-c1cc2[nH]ncc2c(NCc2cc(C)ccc2N(C)S(C)(=O)=O)n1 [Example 132, N-[2-({[6-(2-ethyl-5-fluoro-4-hydroxyphenyl)-1H-pyrazolo[4,3-c]pyridin-4-yl]amino}methyl)-4-methylphenyl]-N-methylmethanesulfonamide hydrochloride] | 19 nM | 31.4 nM | 18.4 nM | 1290 nM |
| CCc1cc(O)c(F)cc1-c1cc2[nH]ncc2c(NCc2cc(Cl)ccc2N(C)S(C)(=O)=O)n1 [Example 133, N-[4-chloro-2-({[6-(2-ethyl-5-fluoro-4-hydroxyphenyl)-1H-pyrazolo[4,3-c]pyridin-4-yl]amino}methyl)phenyl]-N-methylmethanesulfonamide hydrochloride] | 1.2 nM | 5.9 nM | 30.5 nM | 249 nM |
| CCc1cc(O)c(F)cc1-c1cc2[nH]ncc2c(NCc2c(F)cccc2N(C)S(C)(=O)=O)n1 [Example 134, N-[2-({[6-(2-ethyl-5-fluoro-4-hydroxyphenyl)-1H-pyrazolo[4,3-c]pyridin-4-yl]amino}methyl)-3-fluorophenyl]-N-methylmethanesulfonamide hydrochloride] | < 0.5 nM | 1.7 nM | 7.6 nM | 20.3 nM |
| CCc1cc(O)c(F)cc1-c1cc2[nH]ncc2c(NCc2ccccc2N(CC)S(=O)(=O)CC)n1 [Example 136, N-ethyl-N-[2-({[6-(2-ethyl-5-fluoro-4-hydroxyphenyl)-1H-pyrazolo[4,3-c]pyridin-4-yl]amino}methyl)phenyl]ethanesulfonamide hydrochloride] | 0.8 nM | 4.3 nM | 22.4 nM | 8.7 nM |
| CCCN(c1ccccc1CNc1nc(-c2cc(F)c(O)cc2CC)cc2[nH]ncc12)S(C)(=O)=O [Example 137, N-[2-({[6-(2-Ethyl-5-fluoro-4-hydroxyphenyl)-1H-pyrazolo[4,3-c]pyridin-4-yl]amino}methyl)phenyl]-N-propylmethanesulfonamide] | < 0.1 nM | 0.3 nM | 3.3 nM | 45.4 nM |
| CCc1cc(O)c(F)cc1-c1cc2[nH]ncc2c(N(C)Cc2cc(C)ccc2N(CC)S(C)(=O)=O)n1 [Example 142, N-ethyl-N-[2-({[6-(2-ethyl-5-fluoro-4-hydroxyphenyl)-1H-pyrazolo[4,3-c]pyridin-4-yl](methyl)-amino}methyl)-4-methylphenyl]methanesulfonamide] | 3.4 nM | 7.9 nM | 27.9 nM | 885 nM |
| CCc1cc(O)c(F)cc1-c1cc2[nH]ncc2c(N(CC)Cc2cc(C)ccc2N(C)S(C)(=O)=O)n1 [Example 143, N-[2-({ethyl[6-(2-ethyl-5-fluoro-4-hydroxyphenyl)-1H-pyrazolo[4,3-c]pyridin-4-yl]amino}methyl)-4-methylphenyl]-N-methylmethanesulfonamide] | 40.4 nM | 43.6 nM | 122 nM | 4660 nM |
| CCCN(Cc1cc(C)ccc1N(C)S(C)(=O)=O)c1nc(-c2cc(F)c(O)cc2CC)cc2[nH]ncc12 [Example 144, N-[2-({[6-(2-ethyl-5-fluoro-4-hydroxyphenyl)-1H-pyrazolo[4,3-c]pyridin-4-yl](propyl)amino}-methyl)-4-methylphenyl]-N-methylmethanesulfonamide] | 55.3 nM | 70.7 nM | 186 nM | 8730 nM |
| CCc1cc(O)c(F)cc1-c1cc2[nH]ncc2c(N(C)Cc2ccccc2N(CC)S(C)(=O)=O)n1 [Example 145, N-Ethyl-N-[2-({[6-(2-ethyl-5-fluoro-4-hydroxyphenyl)-1H-pyrazolo[4,3-c]pyridin-4-yl](methyl)amino}methyl)phenyl]methanesulfonamide hydrochloride] | 1 nM | 4.5 nM | 16.2 nM | 15.8 nM |
| CCc1cc(O)c(F)cc1-c1cc2[nH]ncc2c(N(C)Cc2ccccc2N(C)S(C)(=O)=O)n1 [Example 146, N-[2-({[6-(2-Ethyl-5-fluoro-4-hydroxyphenyl)-1H-pyrazolo[4,3-c]pyridin-4-yl](methyl)amino}methyl)phenyl]-N-methylmethanesulfonamide hydrochloride] | 0.9 nM | 5.1 nM | 19.1 nM | 49.9 nM |
| CCc1cc(O)c(F)cc1-c1cc2[nH]ncc2c(NCc2ccccc2N(CCO)S(C)(=O)=O)n1 [Example 147, N-[2-({[6-(2-Ethyl-5-fluoro-4-hydroxyphenyl)-1H-pyrazolo[4,3-c]pyridin-4-yl]amino}methyl)phenyl]-N-(2-hydroxyethyl)methanesulfonamide] | 1.1 nM | 4.7 nM | 18.5 nM | 49.4 nM |
| CN(c1ccccc1CNc1nc(-c2cc(F)c(O)cc2CC(F)(F)F)cc2[nH]ncc12)S(C)(=O)=O [Example 148, N-{2-[({6-[5-Fluoro-4-hydroxy-2-(2,2,2-trifluoroethyl)phenyl]-1H-pyrazolo[4,3-c]pyridin-4-yl}amino)methyl]phenyl}-N-methylmethanesulfonamide] | 1.8 nM | 6.3 nM | 22.8 nM | 146 nM |
| CN(c1ccccc1CNCc1nc(-c2cc(F)c(O)cc2CC(F)(F)F)cc2[nH]ncc12)S(C)(=O)=O [Example 149] | 2.7 nM | 14.5 nM | 22.7 nM | 764 nM |
| Cc1ccc(N(C)S(C)(=O)=O)c(CNc2nc(-c3cc(F)c(O)cc3CC(F)(F)F)cc3[nH]ncc23)c1 [Example 150, N-{2-[({6-[5-Fluoro-4-hydroxy-2-(2,2,2-trifluoroethyl)phenyl]-1H-pyrazolo[4,3-c]pyridin-4-yl}amino)methyl]-4-methylphenyl}-N-methylmethanesulfonamide] | 21.6 nM | 48.9 nM | 77.8 nM | 4160 nM |
| CC(C)CNc1nc(-c2cc(F)c(O)cc2CC(F)(F)F)nc2[nH]ncc12 [Example 153, 2-fluoro-4-{4-[(2-methyl-propyl)amino]-1H-pyrazolo[3,4-d]pyrimidin-6-yl}-5-(2,2,2-trifluoroethyl)phenol] | 74 nM | 241 nM | 207 nM | 7460 nM |

— US9518052B2, “Pyrazolopyridines and pyrazolopyrimidines” (Pfizer Inc., priority 2014, dated 2016)
